Data as given in patent US20250042900A1 (priority 2022, published 2025).
Where a name gives a salt, the structure may show the parent alone. Read-outs that look alike come from different tables or passages of the source.

Columns and labels:
[1] = biological target: HTR2A (5-hydroxytryptamine (serotonin) receptor 2A) (Homo sapiens, UniProt P28223); assay: In vitro activity at 5-HT2AR, agonist mode (calcium flux secondary messenger assay); type: cell-based; conditions: for EC50: agonist
serotonin transporter = biological target: T1, serotonin transporter (Homo sapiens, UniProt P31645); assay: cell-based; conditions: SERT, blocker, read-out: IC50 (μM) Antag./Blocker/Inhibitor
T1 construct: expressed in transfected cells
T1 sequence (P31645 whole entry): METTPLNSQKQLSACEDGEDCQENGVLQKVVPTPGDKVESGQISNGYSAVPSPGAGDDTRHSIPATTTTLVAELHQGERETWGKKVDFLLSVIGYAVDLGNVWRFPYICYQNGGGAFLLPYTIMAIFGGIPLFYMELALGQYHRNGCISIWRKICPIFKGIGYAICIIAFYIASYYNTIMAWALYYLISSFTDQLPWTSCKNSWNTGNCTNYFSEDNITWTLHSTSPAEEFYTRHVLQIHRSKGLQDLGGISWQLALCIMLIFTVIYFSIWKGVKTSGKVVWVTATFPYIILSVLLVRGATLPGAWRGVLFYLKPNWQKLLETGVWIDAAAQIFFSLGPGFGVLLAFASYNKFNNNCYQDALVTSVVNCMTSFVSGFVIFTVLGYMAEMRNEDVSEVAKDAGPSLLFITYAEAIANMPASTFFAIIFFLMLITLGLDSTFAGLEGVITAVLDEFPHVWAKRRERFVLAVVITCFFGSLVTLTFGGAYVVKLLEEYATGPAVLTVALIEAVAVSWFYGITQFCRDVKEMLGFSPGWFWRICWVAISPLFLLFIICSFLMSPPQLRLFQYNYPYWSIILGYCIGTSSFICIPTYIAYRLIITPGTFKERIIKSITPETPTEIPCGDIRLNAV

COX2 = biological target: T2, COX2 (Homo sapiens, UniProt P35354); assay: Enzymatic assay COX2; type: biochemical; conditions: inhibitor, read-out: IC50 (μM) Antag./Blocker/Inhibitor
T2 construct: purchased BPS Bioscience
T2 sequence (P35354 18-604): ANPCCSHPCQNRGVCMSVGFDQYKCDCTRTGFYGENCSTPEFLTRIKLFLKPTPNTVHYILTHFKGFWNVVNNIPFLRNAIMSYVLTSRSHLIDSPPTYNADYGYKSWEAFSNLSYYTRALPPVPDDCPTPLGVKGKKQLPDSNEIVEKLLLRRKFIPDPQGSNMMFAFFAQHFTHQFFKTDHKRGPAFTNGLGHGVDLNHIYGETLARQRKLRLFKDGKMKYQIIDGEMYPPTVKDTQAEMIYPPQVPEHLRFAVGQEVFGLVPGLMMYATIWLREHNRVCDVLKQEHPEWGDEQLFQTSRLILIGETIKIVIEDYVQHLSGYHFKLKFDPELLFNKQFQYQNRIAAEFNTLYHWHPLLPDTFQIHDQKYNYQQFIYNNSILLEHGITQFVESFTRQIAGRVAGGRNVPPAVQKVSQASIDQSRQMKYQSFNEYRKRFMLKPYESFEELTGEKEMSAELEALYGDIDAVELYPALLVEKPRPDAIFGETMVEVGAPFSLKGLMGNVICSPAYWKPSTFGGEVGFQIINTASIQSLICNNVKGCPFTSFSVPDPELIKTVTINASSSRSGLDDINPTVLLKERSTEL

MAOA = biological target: T3, MAOA (Homo sapiens, UniProt P21397); assay: Enzymatic assay MAOA; type: biochemical; conditions: inhibitor, read-out: IC50 (μM) Antag./Blocker/Inhibitor
T3 construct: purchased Sigma
T3 sequence (P21397 whole entry): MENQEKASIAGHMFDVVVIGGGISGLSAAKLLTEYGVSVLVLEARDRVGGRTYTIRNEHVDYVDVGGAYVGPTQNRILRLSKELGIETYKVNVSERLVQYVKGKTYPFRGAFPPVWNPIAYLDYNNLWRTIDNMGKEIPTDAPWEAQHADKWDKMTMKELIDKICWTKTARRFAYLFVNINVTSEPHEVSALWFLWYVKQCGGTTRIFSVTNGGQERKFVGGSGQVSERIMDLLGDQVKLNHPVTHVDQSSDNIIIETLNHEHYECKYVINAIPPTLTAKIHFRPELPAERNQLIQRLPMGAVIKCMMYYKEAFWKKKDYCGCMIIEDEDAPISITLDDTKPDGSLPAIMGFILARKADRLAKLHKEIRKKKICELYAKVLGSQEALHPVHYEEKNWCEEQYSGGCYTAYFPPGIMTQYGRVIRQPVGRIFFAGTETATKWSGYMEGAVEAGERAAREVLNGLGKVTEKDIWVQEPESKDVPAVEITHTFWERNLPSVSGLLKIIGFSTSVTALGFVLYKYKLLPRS

PDE3A = biological target: T4, PDE3A (Homo sapiens, UniProt Q14432); assay: Enzymatic assay PDE3A; type: biochemical; conditions: inhibitor, read-out: IC50 (μM) Antag./Blocker/Inhibitor
T4 construct: purchased Signal Chem

PDE4D2 = biological target: T5, PDE4D2 (Homo sapiens, UniProt Q08499); assay: Enzymatic assay PDE4D2; type: biochemical; conditions: inhibitor, read-out: IC50 (μM) Antag./Blocker/Inhibitor
T5 construct: purchased Signal Chem

[2] = biological target: 5-Hydroxytryptamine (Serotonin) Receptor 2B (5-HT2B) (Homo sapiens, UniProt P41595); assay: Calcium flux secondary messenger assay, antagonist format; type: cell-based; conditions: read-out: IC50 (μM) Antag./Blocker/Inhibitor
[3] = biological target: Adrenergic Receptor α1A (ADRA1A) (Homo sapiens, UniProt P35348); assay: Calcium flux secondary messenger assay, agonist format; type: cell-based; conditions: read-out: EC50 (μM) Agonist/Opener
[4] = biological target: T6, Adrenergic Receptor β2 (ADRB2) (Homo sapiens, UniProt P07550); assay: cAMP secondary messenger assay, agonist format; type: cell-based; conditions: read-out: EC50 (μM) Agonist/Opener
T6 sequence (P07550 whole entry): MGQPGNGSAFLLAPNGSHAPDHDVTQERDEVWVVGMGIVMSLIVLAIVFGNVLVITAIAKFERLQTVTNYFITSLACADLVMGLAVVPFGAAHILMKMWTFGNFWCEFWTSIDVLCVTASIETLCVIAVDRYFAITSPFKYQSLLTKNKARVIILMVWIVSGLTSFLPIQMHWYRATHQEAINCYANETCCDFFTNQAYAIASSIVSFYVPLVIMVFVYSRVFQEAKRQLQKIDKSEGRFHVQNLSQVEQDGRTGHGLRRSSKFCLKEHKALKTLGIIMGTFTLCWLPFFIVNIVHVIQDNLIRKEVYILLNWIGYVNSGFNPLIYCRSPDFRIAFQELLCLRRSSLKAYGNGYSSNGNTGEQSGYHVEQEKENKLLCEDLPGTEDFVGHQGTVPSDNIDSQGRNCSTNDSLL

[5] = biological target: T6, Adrenergic Receptor β2 (ADRB2); assay: cAMP secondary messenger assay, antagonist format; type: cell-based; conditions: read-out: IC50 (μM) Antag./Blocker/Inhibitor
[6] = biological target: Histamine Receptor H1 (HRH1) (Homo sapiens, UniProt P35367); assay: cell-based; conditions: Calcium Flux, antagonist, read-out: IC50 (μM) Antag./Blocker/Inhibitor
[7] = biological target: Adrenergic Receptor β1 (ADRB1) (Homo sapiens, UniProt P08588); assay: cAMP secondary messenger assay, agonist format; type: cell-based; conditions: read-out: EC50 (μM) Agonist/Opener
[8] = biological target: Muscarinic acetylcholine Receptor M1 (CHRM1) (Homo sapiens, UniProt P11229); assay: cell-based; conditions: Calcium Flux, antagonist, read-out: IC50 (μM) Antag./Blocker/Inhibitor
[9] = biological target: Muscarinic acetylcholine Receptor M2 (CHRM2) (Homo sapiens, UniProt P08172); assay: cAMP secondary messenger assay, antagonist format; type: cell-based; conditions: read-out: IC50 (μM) Antag./Blocker/Inhibitor
[10] = biological target: Muscarinic acetylcholine Receptor M3 (CHRM3) (Homo sapiens, UniProt P20309); assay: cell-based; conditions: Calcium Flux, antagonist, read-out: IC50 (μM) Antag./Blocker/Inhibitor
Muscarinic acetylcholine Receptor M3 (CHRM3), sequence (P20309 whole entry): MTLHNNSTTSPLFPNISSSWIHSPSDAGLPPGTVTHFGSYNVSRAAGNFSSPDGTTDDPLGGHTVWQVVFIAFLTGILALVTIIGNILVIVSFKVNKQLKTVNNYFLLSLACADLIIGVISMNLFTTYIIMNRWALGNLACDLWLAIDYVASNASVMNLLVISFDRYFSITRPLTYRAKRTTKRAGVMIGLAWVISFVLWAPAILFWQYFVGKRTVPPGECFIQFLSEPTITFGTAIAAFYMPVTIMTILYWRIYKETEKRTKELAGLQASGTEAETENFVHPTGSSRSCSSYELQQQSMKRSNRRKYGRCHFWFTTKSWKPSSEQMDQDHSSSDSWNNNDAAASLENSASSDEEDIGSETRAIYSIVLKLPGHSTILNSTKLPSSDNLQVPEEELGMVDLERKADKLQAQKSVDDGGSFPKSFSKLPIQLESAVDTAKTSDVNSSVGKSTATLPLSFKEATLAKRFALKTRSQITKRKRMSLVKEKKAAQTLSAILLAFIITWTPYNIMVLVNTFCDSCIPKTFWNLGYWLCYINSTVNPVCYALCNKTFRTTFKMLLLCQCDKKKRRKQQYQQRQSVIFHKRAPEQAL

[11] = biological target: Cannabinoid Receptor 2 (CNR2) (Homo sapiens, UniProt P34972); assay: cAMP secondary messenger assay, agonist format; type: cell-based; conditions: read-out: EC50 (μM) Agonist/Opener
[12] = biological target: Dopamine Receptor D2 (DRD2S) (Homo sapiens, UniProt P14416); assay: cAMP secondary messenger assay, antagonist format; type: cell-based; conditions: read-out: IC50 (μM) Antag./Blocker/Inhibitor
[13] = biological target: Endothelin Receptor Type A (EDNRA) (Homo sapiens, UniProt P25101); assay: Calcium flux secondary messenger assay, antagonist format; type: cell-based; conditions: read-out: IC50 (μM) Antag./Blocker/Inhibitor
[14] = biological target: T7, Opioid Receptor Delta 1 (OPRD1) (Homo sapiens, UniProt P41143); assay: cAMP secondary messenger assay, agonist format; type: cell-based; conditions: read-out: EC50 (μM) Agonist/Opener
T7 sequence (P41143 whole entry): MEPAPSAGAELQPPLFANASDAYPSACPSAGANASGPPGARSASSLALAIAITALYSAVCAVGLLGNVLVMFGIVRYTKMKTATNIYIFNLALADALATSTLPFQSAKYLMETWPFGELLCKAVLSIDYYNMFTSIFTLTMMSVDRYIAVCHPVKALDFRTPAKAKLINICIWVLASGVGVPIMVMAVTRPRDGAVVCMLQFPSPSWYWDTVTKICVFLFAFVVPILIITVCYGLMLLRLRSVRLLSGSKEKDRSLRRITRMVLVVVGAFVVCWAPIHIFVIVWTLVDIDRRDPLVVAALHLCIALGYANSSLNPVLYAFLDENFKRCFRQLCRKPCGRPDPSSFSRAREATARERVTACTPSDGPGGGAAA

[15] = biological target: T7, Opioid Receptor Delta 1 (OPRD1); assay: cAMP secondary messenger assay, antagonist format; type: cell-based; conditions: read-out: IC50 (μM) Antag./Blocker/Inhibitor
[16] = biological target: Opioid Receptor Kappa 1 (OPRK1) (Homo sapiens, UniProt P41145); assay: cAMP secondary messenger assay, antagonist format; type: cell-based; conditions: read-out: IC50 (μM) Antag./Blocker/Inhibitor
[17] = biological target: Opioid Receptor Mu (OPRM1) (Homo sapiens, UniProt P35372); assay: cell-based; conditions: cAMP, antagonist, read-out: IC50 (μM) Antag./Blocker/Inhibitor
[18] = biological target: Nicotinic acetylcholine Receptor α4 β2 (nAChR(a4/b2)) (Homo sapiens, UniProt P17787+P43681); assay: Ion channel assay, opener format; type: cell-based; conditions: read-out: EC50 (μM) Agonist/Opener
[19] = biological target: CAV1.2 (Voltage-gated L-type calcium channel) (Homo sapiens, UniProt Q13936); assay: Ion channel assay, blocker format; type: cell-based; conditions: read-out: IC50 (μM) Antag./Blocker/Inhibitor
[20] = test system: Gamma-aminobutyric acid Receptor A (GABAA); assay: Ion channel assay, opener format; type: cell-based; conditions: read-out: EC50 (μM) Agonist/Opener
hERG = hERG (Homo sapiens, UniProt Q12809); assay: Ion channel assay, blocker format; type: cell-based; conditions: read-out: IC50 (μM) Antag./Blocker/Inhibitor
KvLQT1/minK = KvLQT1/minK (Homo sapiens, UniProt P51787); assay: Ion channel assay, blocker format; type: cell-based; conditions: read-out: IC50 (μM) Antag./Blocker/Inhibitor
[21] = biological target: T8, Rho Associated Coiled-Coil Containing Protein Kinase 1 (ROCK1) (Homo sapiens, UniProt Q13464); assay: Kinase binding assay (KINOMEscan); conditions: inhibitor, read-out: IC50 (μM) Antag./Blocker/Inhibitor
T8 construct: T7 phage fusion (most assays) or DNA tag for qPCR (the remaining kinases); made in house; host or cells: E. coli (BL21-derived, T7 phage display) or HEK-293

[22] = biological target: T9, Nuclear Hormone Glucocorticoid Receptor (GR) (Homo sapiens, UniProt P04150); assay: NHR Protein Interaction assay, agonist format; type: cell-based; conditions: read-out: EC50 (μM) Agonist/Opener
T9 sequence (P04150 whole entry): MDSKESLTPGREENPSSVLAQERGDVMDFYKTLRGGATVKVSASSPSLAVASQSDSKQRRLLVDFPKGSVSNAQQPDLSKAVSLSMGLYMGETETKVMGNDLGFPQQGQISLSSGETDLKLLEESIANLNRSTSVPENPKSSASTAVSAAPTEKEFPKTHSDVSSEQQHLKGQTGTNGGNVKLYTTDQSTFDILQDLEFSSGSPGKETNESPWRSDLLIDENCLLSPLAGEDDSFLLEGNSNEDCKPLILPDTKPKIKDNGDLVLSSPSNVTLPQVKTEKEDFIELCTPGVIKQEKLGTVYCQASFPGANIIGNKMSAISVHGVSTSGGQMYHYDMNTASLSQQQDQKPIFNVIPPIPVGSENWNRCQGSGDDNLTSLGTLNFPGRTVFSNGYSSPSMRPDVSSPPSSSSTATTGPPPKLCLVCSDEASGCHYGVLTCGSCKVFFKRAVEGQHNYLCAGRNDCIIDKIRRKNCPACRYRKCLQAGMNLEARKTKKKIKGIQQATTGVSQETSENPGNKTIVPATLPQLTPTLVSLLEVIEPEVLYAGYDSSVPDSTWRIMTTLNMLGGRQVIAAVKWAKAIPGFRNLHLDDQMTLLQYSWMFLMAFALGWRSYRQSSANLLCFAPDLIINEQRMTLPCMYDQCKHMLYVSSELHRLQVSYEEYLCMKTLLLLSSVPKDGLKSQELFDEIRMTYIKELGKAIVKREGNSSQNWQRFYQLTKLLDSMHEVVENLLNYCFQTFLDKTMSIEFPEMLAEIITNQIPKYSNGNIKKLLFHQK

[23] = biological target: T9, Nuclear Hormone Glucocorticoid Receptor (GR); assay: NHR Protein Interaction assay, antagonist format; type: cell-based; conditions: read-out: IC50 (μM) Antag./Blocker/Inhibitor
[24] = biological target: T10, Lymphocyte Cell-Specific Protein-Tyrosine Kinase (Src family) (LCK) (Homo sapiens, UniProt P06239); assay: Kinase binding assay (KINOMEscan); conditions: inhibitor, read-out: IC50 (μM) Antag./Blocker/Inhibitor
T10 construct: T7 phage fusion (most assays) or DNA tag for qPCR (the remaining kinases); made in house; host or cells: E. coli (BL21-derived, T7 phage display) or HEK-293
T10 sequence (P06239 whole entry, the tested form may be a part): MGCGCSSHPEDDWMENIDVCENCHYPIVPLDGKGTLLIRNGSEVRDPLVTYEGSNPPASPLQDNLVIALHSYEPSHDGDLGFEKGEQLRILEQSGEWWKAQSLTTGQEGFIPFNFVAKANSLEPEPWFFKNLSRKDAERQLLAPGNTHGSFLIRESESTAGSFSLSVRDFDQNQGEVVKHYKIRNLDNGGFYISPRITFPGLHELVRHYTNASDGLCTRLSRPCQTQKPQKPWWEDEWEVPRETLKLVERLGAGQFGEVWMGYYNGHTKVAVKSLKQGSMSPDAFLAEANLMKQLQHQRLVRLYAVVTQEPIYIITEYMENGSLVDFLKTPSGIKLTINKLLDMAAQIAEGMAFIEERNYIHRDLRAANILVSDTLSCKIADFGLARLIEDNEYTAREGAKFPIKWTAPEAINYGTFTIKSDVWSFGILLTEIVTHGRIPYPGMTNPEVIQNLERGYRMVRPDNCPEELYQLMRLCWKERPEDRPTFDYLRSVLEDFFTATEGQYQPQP

[25] = biological target: norepinephrine transporter (Homo sapiens, UniProt P23975); assay: Monoamine transporter uptake assay (Neurotransmitter Transporter Uptake Assay Kit), blocker format

HTR2A (5-hydroxytryptamine (serotonin) receptor 2A), sequence (P28223 whole entry): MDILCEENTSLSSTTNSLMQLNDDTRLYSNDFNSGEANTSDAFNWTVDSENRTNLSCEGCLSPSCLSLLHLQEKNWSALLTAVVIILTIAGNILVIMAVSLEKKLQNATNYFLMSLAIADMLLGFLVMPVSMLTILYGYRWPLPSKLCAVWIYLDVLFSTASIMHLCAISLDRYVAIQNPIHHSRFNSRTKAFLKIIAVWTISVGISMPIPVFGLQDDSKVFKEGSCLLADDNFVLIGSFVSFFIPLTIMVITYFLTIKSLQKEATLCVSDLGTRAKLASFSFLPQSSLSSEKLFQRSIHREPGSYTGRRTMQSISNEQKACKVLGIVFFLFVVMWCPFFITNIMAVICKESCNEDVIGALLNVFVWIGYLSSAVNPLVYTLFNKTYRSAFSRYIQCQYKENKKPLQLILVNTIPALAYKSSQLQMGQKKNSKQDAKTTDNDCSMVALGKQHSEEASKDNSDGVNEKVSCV

CN(C)CCc1ccn2ccccc12 [28-12 oxalate, 2-(indolizin-1-yl)-N, N-dimethylethan-1-amine oxalate]
agonist effects at 5-HT2AR (in words) [1]: partial agonist effects | EC50 ([1]; 5-HT2A, Calcium Flux, read-out: EC50 (μM) Agonist/Opener): 0.052 µM | EC50 ([1]; ten concentrations up to 30 μM, estimated, read-out: EC50 at 5-HT2AR): ~0.0522 µM | Emax ([1]; of the response produced by 5-HT, read-out: maximum effect at 5-HT2AR): ~30% | IC50 (serotonin transporter): > 30 µM | IC50 (COX2): > 30 µM | IC50 (MAOA): 7.25 µM | IC50 (PDE3A): > 30 µM | IC50 (PDE4D2): > 30 µM | IC50 [2]: 3.28 µM | EC50 [3]: > 30 µM | EC50 [4]: > 30 µM | IC50 [5]: 10.2 µM | IC50 [6]: 9.27 µM | EC50 [7]: > 30 µM | IC50 [8]: > 30 µM | IC50 [9]: > 30 µM | IC50 [10]: > 30 µM | EC50 [11]: > 30 µM | IC50 [12]: 22.3 µM | IC50 [13]: > 30 µM | EC50 [14]: > 30 µM | IC50 [15]: > 30 µM | IC50 [16]: > 30 µM | IC50 [17]: > 30 µM | EC50 [18]: > 30 µM | IC50 [19]: > 30 µM | EC50 [20]: > 30 µM | IC50 (hERG): > 30 µM | IC50 (KvLQT1/minK): > 30 µM | IC50 [21]: > 30 µM | EC50 [22]: > 30 µM | IC50 [23]: 17.1 µM | IC50 [24]: > 30 µM | IC50 [25]: > 30 µM
